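Five compound concentrations were applied to cells in 96-well plates for 48 hours; endpoints were derived by simple linear interpolation of the resulting dose-response curve. GI50 = concentration required for 50% inhibition of growth. TGI marks complete inhibition of growth.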
Assays:
Assay in all cases: NCI-60 cell line screen, 48 h
OVCAR-5 ovarian = tested on: OVCAR-5 ovarian
HCT-116 colon = tested on: HCT-116 colon
MCF7 breast = tested on: MCF7 breast
NCI/ADR-RES ovarian = tested on: NCI/ADR-RES ovarian
CAKI-1 renal = tested on: CAKI-1 renal
UACC-62 melanoma = tested on: UACC-62 melanoma
SF-295 CNS = tested on: SF-295 CNS
BT-549 breast = tested on: BT-549 breast
SF-539 CNS = tested on: SF-539 CNS
ACHN renal = tested on: ACHN renal

Compound	GI50 (OVCAR-5 ovarian)	TGI (OVCAR-5 ovarian)	GI50 (HCT-116 colon)	TGI (HCT-116 colon)	GI50 (MCF7 breast)	TGI (MCF7 breast)	GI50 (NCI/ADR-RES ovarian)	TGI (NCI/ADR-RES ovarian)	GI50 (CAKI-1 renal)	TGI (CAKI-1 renal)	GI50 (UACC-62 melanoma)	TGI (UACC-62 melanoma)	GI50 (SF-295 CNS)	TGI (SF-295 CNS)	GI50 (BT-549 breast)	TGI (BT-549 breast)	GI50 (SF-539 CNS)	TGI (SF-539 CNS)	GI50 (ACHN renal)	TGI (ACHN renal)
O=C(O[C@H]1CN[C@H](C#Cc2cc3ncnc(Nc4ccc(OCc5cccc(F)c5)c(Cl)c4)c3s2)C1)N1CCOCC1	10.5 µM	> 25 µM	7.99 µM	> 25 µM	8.57 µM	> 25 µM	6.3 µM	> 25 µM	3.17 µM	> 25 µM	13.4 µM	> 25 µM	9 µM	> 25 µM	4.28 µM	8.69 µM	5.09 µM	12 µM	4.27 µM	> 25 µM
CC(C)Cc1ccc(C(C)/C=C2\CCC(CN3CCCC3)C2=O)cc1 (stereo unspecified)	–	36.3 µM	–	15.5 µM	–	–	–	–	–	28 µM	–	31.2 µM	–	30.8 µM	–	–	–	15.4 µM	–	24.3 µM
C/C=C1\C(=O)O[C@@H]2C1C[C@@H]1O[C@H]2[C@H](C)CCC/C(C)=C/CC[C@@]1(C)O (stereo partly specified)	13.5 µM	26.8 µM	2.81 µM	10.1 µM	2.33 µM	6.1 µM	3.89 µM	13.4 µM	3.47 µM	15.4 µM	7.16 µM	20.7 µM	13.3 µM	27.6 µM	–	–	2.52 µM	6.06 µM	2.77 µM	14.5 µM
c1ccc2c(c1)nnn2CNc1ccc(N2CCOCC2)cc1	–	–	–	> 100 µM	–	–	–	–	–	–	–	> 100 µM	–	> 100 µM	–	–	–	> 100 µM	–	> 100 µM
Cc1[nH]c2ccccc2c1C1CC(=O)NC1=O (stereo unspecified)	–	> 100 µM	–	> 100 µM	–	–	–	–	–	> 100 µM	–	> 100 µM	–	> 100 µM	–	–	–	> 100 µM	–	> 100 µM
N#Cc1ccc(-c2nc3ccc(Cl)cc3[nH]2)cc1	–	–	–	–	–	> 100 µM	–	> 100 µM	–	> 100 µM	–	–	–	> 100 µM	–	> 100 µM	–	> 100 µM	–	–
S=P(c1ccccc1)(c1ccccc1)C1(C2(P(=S)(c3ccccc3)c3ccccc3)CC2)CC1	–	> 100 µM	–	> 100 µM	–	–	–	–	–	–	–	> 100 µM	–	> 100 µM	–	–	–	> 100 µM	–	> 100 µM
O=C1NC(=O)C(=O)C(c2nc3ccccc3s2)C1=O	–	–	–	> 100 µM	–	–	–	–	–	> 100 µM	–	> 100 µM	–	> 100 µM	–	–	–	> 100 µM	–	> 100 µM
CCC(O)(c1ccc(OC)cc1)C(c1ccc(OCc2ccccc2)cc1)c1ccc(OCc2ccccc2)cc1 (stereo unspecified)	–	> 100 µM	–	> 100 µM	–	–	–	–	–	> 100 µM	–	> 100 µM	–	> 100 µM	–	–	–	> 100 µM	–	> 100 µM
CC(Oc1ccc(OCC2CCCCC2)cc1)C(=O)O (stereo unspecified)	–	–	–	> 100 µM	–	–	–	–	–	–	–	> 100 µM	–	> 100 µM	–	–	–	> 100 µM	–	> 100 µM
O=C(N/C(=C\c1ccc([N+](=O)[O-])cc1)c1nc2ccc(Cl)cc2[nH]1)c1ccccc1	–	74.5 µM	–	–	–	–	–	–	–	59.6 µM	–	50.1 µM	–	63.8 µM	–	–	–	40.7 µM	–	66.8 µM
COc1cc([C@@H]2c3cc4c(cc3[C@H](OC(C)=O)[C@H]3COC(=O)[C@H]23)OCO4)cc(OC)c1OC	0.0533 µM	> 100 µM	–	–	–	–	0.0271 µM	> 100 µM	–	–	0.0598 µM	> 100 µM	0.026 µM	> 100 µM	0.0311 µM	21.9 µM	–	–	0.044 µM	> 100 µM
NC1=NC(c2ccccc2)CC(c2cc(Cl)cc(Br)c2O)=N1 (stereo unspecified)	–	34.4 µM	–	25.8 µM	–	21.4 µM	–	29.9 µM	–	26.8 µM	–	24.6 µM	–	23.7 µM	–	–	–	25.4 µM	–	31.5 µM
CCOC(=O)/C(C#N)=C\C=C1/C=CNC2=NCCN21	–	–	–	> 100 µM	–	–	–	–	–	> 100 µM	–	> 100 µM	–	> 100 µM	–	–	–	> 100 µM	–	> 100 µM
CC(=O)O[C@H]1CCC2[C@@H]3CCC4Nc5c(cnn5-c5ccccc5)C[C@]4(C)C3CC[C@@]21C (stereo partly specified)	–	60.1 µM	–	27.5 µM	–	–	–	–	–	20.7 µM	–	22.6 µM	–	10.7 µM	–	–	–	54.9 µM	–	48.1 µM
ClC1(c2ccccc2)c2ccc(Br)cc2-c2cc(Br)ccc21	–	31.4 µM	–	28.5 µM	–	36 µM	–	34.3 µM	–	29.4 µM	–	–	–	31.8 µM	–	37.7 µM	–	33.3 µM	–	29.6 µM
O=C(COc1ccc(Cl)cc1)N1N=C(c2ccc([N+](=O)[O-])o2)CC1(O)c1ccccc1 (stereo unspecified)	–	29.7 µM	–	17.9 µM	–	–	–	–	–	> 100 µM	–	19.7 µM	–	22.6 µM	–	–	–	26.9 µM	–	–
NCCCn1c2c(c3cc4c(cc3c1=O)OCO4)C(=O)c1ccccc1-2	–	–	–	0.554 µM	–	–	0.7 µM	2.11 µM	0.688 µM	2.22 µM	2.06 µM	5.5 µM	0.483 µM	1.48 µM	–	–	–	–	0.119 µM	1.22 µM
C[C@@H](NC1CCC[C@@H]1O)c1ccccc1 (stereo partly specified)	–	> 100 µM	–	> 100 µM	–	–	–	–	–	> 100 µM	–	> 100 µM	–	> 100 µM	–	–	–	–	–	> 100 µM
CC1=C(/C=C/C2=CC(=C\C(=O)O)/CC(C3=C(C)CCCC3(C)C)C2)C(C)(C)CCC1 (stereo unspecified)	–	29.9 µM	–	37 µM	–	–	–	–	–	29.5 µM	–	23.1 µM	–	22 µM	–	–	–	30.6 µM	–	22.2 µM
O=C(O)CCSC(=O)Nc1cccc([N+](=O)[O-])c1	–	–	–	> 100 µM	–	–	–	–	–	> 100 µM	–	–	–	> 100 µM	–	–	–	> 100 µM	–	> 100 µM
O=C(O)CN(c1ccccc1)S(=O)(=O)c1ccc(Cl)cc1	–	> 100 µM	–	–	–	–	–	–	–	> 100 µM	–	> 100 µM	–	–	–	–	–	> 100 µM	–	> 100 µM
COc1cc2c(=O)n(CCCn3ccnc3)c3c4cc5c(cc4ccc3c2cc1OC)OCO5	–	–	–	–	0.0999 µM	> 100 µM	1.08 µM	> 100 µM	–	–	–	–	0.331 µM	12.5 µM	0.701 µM	> 100 µM	0.489 µM	1.8 µM	0.278 µM	1.36 µM
O=c1ccccc(-c2ccc(-c3ccco3)cc2)c1O	2.79 µM	42 µM	0.582 µM	15.8 µM	0.412 µM	29.8 µM	0.388 µM	4.65 µM	–	–	0.588 µM	4.14 µM	0.555 µM	13.6 µM	1.65 µM	28 µM	0.703 µM	6.38 µM	0.437 µM	12 µM

Source: PubChem BioAssay (NCI)
